pIC50, pKi: −log10 of the molar value. Where two headings read alike, the source gives them in different places.
What was measured:
[1] = tested on: gel-filtered human platelets; assay: Inhibition of the aggregation of gel-filtered human platelets after ADP or thrombin stimulation; format: cell-based; details: Platelet
Procedure: (§1) The compounds are tested in particular for their inhibitory effect on blood platelet aggregation and the adhesion of fibrinogen to blood platelets. Gel-filtered blood platelets from human donor blood are used, which are activated with ADP or thrombin.
As a functional test, the inhibition of the aggregation of gel-filtered human platelets is measured after ADP or thrombin stimulation by the compounds according to the invention. The IC50 value of the inhibition is indicated (reference: G. A. Marguerie et al., J. Biol. Chem. 254 (1979), 5357-5363).
(§2) On testing of the inhibition of fibrinogen binding and the inhibition of aggregation, the following results are obtained for the compounds of the examples which follow: […]

[2] = target: T1, fibrinogen receptor (glycoprotein IIb/IIIa) (Homo sapiens, UniProt P05106+P08514); assay: Inhibition of the binding of 125I-fibrinogen to its receptor (glycoprotein IIb/IIIa) on intact, gel-filtered human platelets; details: after stimulation with ADP (10 μM)
T1 construct: on intact, gel-filtered human platelets; from tissue; host or cells: gel-filtered blood platelets from human donor blood
Procedure: as §1
The inhibition of the binding of fibrinogen to its receptor (glycoprotein IIb/IIIa) on intact, gel-filtered human platelets by the compounds according to the invention is tested. The Ki value of the inhibition of binding of […] after stimulation with ADP (10 μM) is indicated. (Reference: J. S. Bennett and G. Vilaire, J. Clin. Invest. 64 (1979) 1393-1401; E. Kornecki et al., J. Biol. Chem. 256 (1981), 5695-5701; G. A. Marguerie et al., J. Biol. Chem. 254 (1979) 5357-5363; G. A. Marguerie et al., J. Biol. Chem. 255 (1980) 154-161.)
as §2

[3] = ADP stimulation, read-out: Inhibition of platelet aggregation, ADP (IC50)
[4] = thrombin stimulation, read-out: Inhibition of platelet aggregation, thrombin (IC50)

T1 sequence (P08514 32-887 limits assumed): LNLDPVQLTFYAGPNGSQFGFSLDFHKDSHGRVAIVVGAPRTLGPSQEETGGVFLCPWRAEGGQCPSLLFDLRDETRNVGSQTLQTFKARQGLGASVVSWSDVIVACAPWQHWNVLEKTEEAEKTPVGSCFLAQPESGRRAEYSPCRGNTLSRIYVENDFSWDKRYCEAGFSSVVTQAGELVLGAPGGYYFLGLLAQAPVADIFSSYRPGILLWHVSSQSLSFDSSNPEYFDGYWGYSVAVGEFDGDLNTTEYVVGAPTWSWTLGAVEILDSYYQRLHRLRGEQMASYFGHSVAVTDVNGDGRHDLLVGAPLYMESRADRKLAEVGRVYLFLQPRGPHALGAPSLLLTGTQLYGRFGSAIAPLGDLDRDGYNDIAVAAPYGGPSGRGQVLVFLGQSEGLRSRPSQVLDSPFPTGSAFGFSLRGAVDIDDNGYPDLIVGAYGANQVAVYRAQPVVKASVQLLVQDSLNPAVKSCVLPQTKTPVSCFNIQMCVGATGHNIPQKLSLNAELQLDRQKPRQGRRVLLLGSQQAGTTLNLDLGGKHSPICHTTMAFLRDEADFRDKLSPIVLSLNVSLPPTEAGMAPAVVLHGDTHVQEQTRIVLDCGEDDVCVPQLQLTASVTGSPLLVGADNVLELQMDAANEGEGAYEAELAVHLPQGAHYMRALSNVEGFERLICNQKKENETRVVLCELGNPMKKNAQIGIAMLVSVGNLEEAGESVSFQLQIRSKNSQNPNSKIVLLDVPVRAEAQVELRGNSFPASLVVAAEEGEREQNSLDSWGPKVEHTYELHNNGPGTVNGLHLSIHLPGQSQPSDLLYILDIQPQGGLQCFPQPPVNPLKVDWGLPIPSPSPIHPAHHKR
T1 sequence (P08514 891-1039 limits assumed): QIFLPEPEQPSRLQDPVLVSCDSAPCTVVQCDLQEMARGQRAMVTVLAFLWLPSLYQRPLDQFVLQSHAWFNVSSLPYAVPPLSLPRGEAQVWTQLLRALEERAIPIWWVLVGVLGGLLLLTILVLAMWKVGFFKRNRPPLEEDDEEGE
T1 sequence (P05106 27-788): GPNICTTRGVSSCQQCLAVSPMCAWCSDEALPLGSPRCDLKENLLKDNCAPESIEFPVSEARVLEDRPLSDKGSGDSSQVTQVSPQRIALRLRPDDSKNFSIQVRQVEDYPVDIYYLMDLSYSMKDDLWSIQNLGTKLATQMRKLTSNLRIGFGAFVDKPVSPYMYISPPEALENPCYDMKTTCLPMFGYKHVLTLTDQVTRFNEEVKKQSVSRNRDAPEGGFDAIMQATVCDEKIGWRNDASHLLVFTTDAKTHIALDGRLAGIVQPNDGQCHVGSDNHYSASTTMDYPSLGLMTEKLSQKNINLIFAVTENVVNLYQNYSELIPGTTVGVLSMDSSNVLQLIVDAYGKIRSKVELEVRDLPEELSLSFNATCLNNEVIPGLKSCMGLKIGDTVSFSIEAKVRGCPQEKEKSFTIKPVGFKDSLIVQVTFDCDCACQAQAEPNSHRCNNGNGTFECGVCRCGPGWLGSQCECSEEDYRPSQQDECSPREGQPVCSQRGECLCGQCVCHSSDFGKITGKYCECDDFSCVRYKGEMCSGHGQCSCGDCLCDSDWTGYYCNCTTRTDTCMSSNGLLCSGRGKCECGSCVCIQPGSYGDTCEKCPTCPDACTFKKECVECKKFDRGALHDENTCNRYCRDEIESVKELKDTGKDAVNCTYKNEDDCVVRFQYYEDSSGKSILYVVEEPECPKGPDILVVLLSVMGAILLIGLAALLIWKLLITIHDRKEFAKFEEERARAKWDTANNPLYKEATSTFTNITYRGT

pIC50 [1, 3]	pIC50 [1, 4]	pKi [2]	Compound
4.00	4.00	–	COC(=O)C(CCc1ccccc1)NC(=O)CN1C(=O)CC(Cc2ccc(C(=N)N)cc2)C1=O (racemic) [Example 13, {3-[4-(Aminoiminomethyl)benzyl]-2,5-dioxopyrrolidin-1-yl}acetyl-D,L-homophenylalanine methyl ester]
3.70	3.70	–	COC(=O)CC(NC(=O)CN1C(=O)CC(Cc2ccc(C(=N)N)cc2)C1=O)c1cccc(O)c1 (racemic) [Example 15, Methyl 3-(R,S)-3-<{3-[4-(aminoiminomethyl)benzyl]-2,5-dioxopyrrolidin-1-yl}acetamido>-3-(3-hydroxyphenyl)propionate]
4.70	5.05	–	N=C(N)c1ccc(CC2CC(=O)N(CC(=O)NC(CC(=O)O)c3cccc(O)c3)C2=O)cc1 (racemic) [Example 16, 3-(R,S)-3-<{3-[4-(Aminoiminomethyl)benzyl]-2,5-dioxopyrrolidin-1-yl}acetamido>-3-(3-hydroxyphenyl)propionate]
4.00	4.00	–	N=C(N)c1ccc(CC2CC(=O)N(CC(=O)NC(CCc3ccccc3)C(=O)O)C2=O)cc1 (racemic) [Example 17, {3-[4-(Aminoiminomethyl)benzyl]-2,5-dioxopyrrolidin-1-yl}acetyl-D,L-homophenylalanine]
6.70	7.05	7.37	N=C(N)c1ccc(CC2CC(=O)N(CC(=O)N[C@@H](CC(=O)O)C(=O)N[C@H](C(=O)O)c3ccccc3)C2=O)cc1 (stereo partly drawn) [Example 1, {3-[4-(Aminoiminomethyl)benzyl]-2,5-dioxopyrrolidin-1-yl}acetyl-L-aspartyl-L-phenylglycine]
4.00	4.10	–	COC(=O)[C@H](Cc1c[nH]c2ccccc12)NC(=O)CN1C(=O)CC(Cc2ccc(C(=N)N)cc2)C1=O (stereo partly drawn) [Example 12, {3-[4-(Aminoiminomethyl)benzyl]-2,5-dioxopyrrolidin-1-yl}acetyl-L-tryptophan methyl ester]
4.70	4.46	–	CC(C)OC(=O)C[C@H](NC(=O)CN1C(=O)CC(Cc2ccc(C(=N)N)cc2)C1=O)C(=O)N[C@H](C(=O)OC(C)C)c1ccccc1 (stereo partly drawn) [Example 14, {3-[4-(Aminoiminomethyl)benzyl]-2,5-dioxopyrrolidin-1-yl}acetyl-L-(β-isopropyl)aspartyl-L-phenylglycine isopropyl ester]
4.00	4.15	–	N=C(N)c1ccc(CC2CC(=O)N(CC(=O)N[C@@H](Cc3c[nH]c4ccccc34)C(=O)O)C2=O)cc1 (stereo partly drawn) [Example 18, {3-[4-(Aminoiminomethyl)benzyl]-2,5-dioxopyrrolidin-1-yl}acetyl-L-tryptophan]
5.40	6.00	–	O=C(O)C[C@H](NC(=O)CN1C(=O)CC(CC2CCNCC2)C1=O)C(=O)N[C@H](C(=O)O)c1ccccc1 (stereo partly shown) [Example 19]

Source: patent US5658935A, “Heterocycles, their preparation and their use” (Hoechst Aktiengesellschaft, priority 1993, dated 1997)
